Where two headings read alike, the source gives them in different places.
What was measured:
[1] = system: leukemic blast cells; experiment: Phase I/II clinical trial of LAA depletion alternating with LAA supplementation; format: in vivo, human
Source text: No. 12, Blood. 2000 (see Reference 9).
That is, in the example, a leukemia patient first received a chemotherapy and subsequently received the LAA supplementation. […] The noted sharp decline is much more precipitous than what can be observed with chemotherapy.
In the example, the significant improvement is also noted that there was a total of 8 out of 16 patients in the Phase I/II clinical trial responding (p=0.007).

[2] = system: sarcoma tumors; details: oral gavage, cited from earlier work
[3] = cited from earlier work
[4] = system: human leukemic cells; details: bone marrows from 259 patients; cited from earlier work
[5] = biological target: T1, SVCT2 (Homo sapiens, UniProt Q9UGH3); design: endogenous in cells; host or cells: HTR-8/SVneo human trophoblast cell line; details: cited from earlier work; for uptake of LAA via SVCT2: trophoblast cells; for inhibitory action for LAA transporter SVCT2: HTR-8/SVneo cells
Target sequence in this assay (Q9UGH3 whole entry): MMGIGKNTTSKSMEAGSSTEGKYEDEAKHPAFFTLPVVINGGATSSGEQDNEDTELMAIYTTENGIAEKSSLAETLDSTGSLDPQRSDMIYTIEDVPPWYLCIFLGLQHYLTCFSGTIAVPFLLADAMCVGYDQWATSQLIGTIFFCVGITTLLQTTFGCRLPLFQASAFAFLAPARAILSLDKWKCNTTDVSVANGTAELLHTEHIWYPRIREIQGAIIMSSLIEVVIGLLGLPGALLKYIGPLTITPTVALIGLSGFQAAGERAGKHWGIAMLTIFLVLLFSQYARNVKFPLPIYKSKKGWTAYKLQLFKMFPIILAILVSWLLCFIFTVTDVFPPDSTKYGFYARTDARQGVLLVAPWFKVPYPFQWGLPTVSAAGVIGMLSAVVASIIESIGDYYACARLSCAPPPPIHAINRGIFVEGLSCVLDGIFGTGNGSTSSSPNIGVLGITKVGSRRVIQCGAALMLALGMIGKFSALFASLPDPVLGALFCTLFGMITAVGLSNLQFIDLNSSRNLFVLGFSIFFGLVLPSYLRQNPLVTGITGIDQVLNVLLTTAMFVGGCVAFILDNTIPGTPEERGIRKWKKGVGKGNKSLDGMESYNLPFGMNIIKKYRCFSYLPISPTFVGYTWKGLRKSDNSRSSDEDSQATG

[6] = biological target: T1, SVCT2; design: endogenous in cells; host or cells: bone marrow stromal cells (BMSCs); details: 600 uM, BMSCs; cited from earlier work
Target sequence in this assay (Q9UGH3 whole entry, species assumed): as the sequence (Q9UGH3 whole entry) above

[7] = system: SVCT2; details: 200 uM, cortical or cerebellar neurons; cited from earlier work
[8] = biological target: T2, SVCT1(h) (Homo sapiens, UniProt Q9UHI7); details: 50 uM, ascorbate 10-400 uM; cited from earlier work
T2 construct: expressed in transfected cells

[9] = humans, oral; cited from earlier work

T2 sequence (Q9UHI7 whole entry): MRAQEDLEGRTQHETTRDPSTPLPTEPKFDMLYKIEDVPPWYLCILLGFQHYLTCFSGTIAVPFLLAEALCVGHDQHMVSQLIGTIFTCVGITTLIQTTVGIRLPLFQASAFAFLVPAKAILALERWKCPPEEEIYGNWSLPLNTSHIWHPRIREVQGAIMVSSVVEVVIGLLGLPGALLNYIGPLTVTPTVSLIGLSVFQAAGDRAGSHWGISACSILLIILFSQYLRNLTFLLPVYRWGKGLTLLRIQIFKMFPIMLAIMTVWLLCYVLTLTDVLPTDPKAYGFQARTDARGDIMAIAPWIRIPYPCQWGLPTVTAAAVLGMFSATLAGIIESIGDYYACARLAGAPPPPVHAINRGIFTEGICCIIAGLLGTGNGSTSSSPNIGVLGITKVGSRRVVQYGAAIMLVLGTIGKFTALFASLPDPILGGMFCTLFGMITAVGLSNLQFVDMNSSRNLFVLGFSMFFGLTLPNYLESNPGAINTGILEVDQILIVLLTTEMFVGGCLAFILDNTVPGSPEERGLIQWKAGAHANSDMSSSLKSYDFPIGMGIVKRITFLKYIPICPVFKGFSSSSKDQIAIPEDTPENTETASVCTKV

## O=C1O[C@H]([C@@H](O)CO)C(O)=C1O [LAA, L-ascorbic acid]
[1]; LAA supplementation after chemotherapy (FIG. 3B)
  D-dimer test for massive cell lysis: sharp increase
[1]; Phase I/II clinical trial, 16 evaluated patients, p=0.007
  patients responding: 8 out of 16
[1]; after 10 days of LAA supplementation, relapse after cytotoxic chemotherapy (FIG. 3A)
  leukemic blast cells in peripheral blood: sharp decline
[1]; alternation of LAA supplementation and depletion, same patient (FIG. 2B)
  frequency of platelet transfusion: marked reduction in the frequency of platelet transfusion
[1]; during supplementation of LAA phase, intravenous, one patient (FIG. 2A)
  leukemic blast cell number (peripheral blood and bone marrow): decline in leukemic blast cell number
[1]; during supplementation of LAA phase, one patient (FIG. 2A)
  spleen size: decline in spleen size
[2]; 0.3 mg/kg/day, up to 24 weeks
  complete tumor regression, animals: 55%
[2]; 10 mg/kg/day
  tumor growth: tumor inhibition but no regression
[2]; 1 g/kg/day
  tumor growth: grew without sign of retardation
[3]; intravenous infusion
  peak concentrations without significant adverse effects: over 10 mMol
[3]; oral, up to 180 gram per day in divided doses
  blood levels: ≤ 200 µM
[4]
  patients whose leukemic cells had the requirement of LAA for growth: ~50%

## COc1ccc2c(c1)c(CC(=O)O)c(C)n2C(=O)c1ccc(Cl)cc1 [indomethacin]
[5]
  uptake of LAA via SVCT2: inhibit the uptake of LAA

## O=c1c(-c2ccc(O)cc2)coc2cc(O)cc(O)c12 [genistein]
[5]
  inhibitory action for LAA transporter SVCT2: very strong inhibitory action

## O=C(O)Cc1ccccc1Nc1c(Cl)cccc1Cl [diclofenac]
[5]
  inhibitory action for LAA transporter SVCT2: very strong inhibitory action
  uptake of LAA via SVCT2: inhibit the uptake of LAA

## Cl.N=c1c[n+](N2CCOCC2)[n-]o1 [SIN-1, 3-(4-Morpholinyl) sydnonimine hydrochloride]
[6]
  decrease in LAA uptake: up to 40%

## C[C@]12CC[C@@H]3c4ccc(O)cc4CC[C@H]3[C@@H]1CC[C@@H]2O [17β-estadiol]
[5]
  inhibitory action for LAA transporter SVCT2: very strong inhibitory action

## O=c1c(O)c(-c2ccc(O)c(O)c2)oc2cc(O)cc(O)c12 [quercetin]
[7]
  decrease of LAA transport SVCT2: 80%
[8]
  inhibition of LAA transporter SVCT1(h): about 80%
[5]
  inhibitory action for LAA transporter SVCT2: very strong inhibitory action
[9]
  dose administered orally without side effects: 4 g

— patent US20200375943A1 (priority 2019, published 2020)
